Source: patent publication US20190119284A1, “ErbB Inhibitors and Uses Thereof” (The Regents of the University of California, priority 2016, published 2019)
Where two headings read alike, the source gives them in different places.

Assays:
[1] = Mouse Liver Microsome stability assay; type: in vitro ADME; conditions: mouse liver microsomes
[2] = biological target: 2YF/3wt + NRG Ba/F3 cells (HER2YF/HER3wt) (Homo sapiens, UniProt P04626, Y1005F/Y1023F/Y1112F/Y1127F/Y1139F/Y1196F/Y1221F/Y1222F/Y1248F, cells depend on it); assay: Ba/F3 proliferation assay, 2YF/3wt + NRG; type: cell-based; conditions: Tables 7 and 8; read-out: Ba/F3 line IC50, HER2YF/HER3 + NRG
Excerpt: Ba/F3 cells are normally dependent on IL-3 signaling for their proliferation and survival, but can be made dependent on introduced oncogenic signals. We sequentially selected transduced Ba/F3 cells for populations stably expressing HER3 and then HER2. To ensure that all of the proliferative signal could be attributed to HER2/HER3 heterodimers, rather than HER2 homodimers, the 9 C-terminal tyrosines in HER2 were mutated to phenylalanine (HER2YF). We then withdrew IL-3 and supplemented the media with NRG to select for NRG dependent HER2YF/HER3wt cells (2YF/3wt).
For the 2YF/3wt cells, the parental cells were first transduced with HER3 according to the protocol above and were then spun down at 500×g for 5 min and re-suspended in media supplemented with 10 ng/mL IL-3 and 3 μg/mL puromycin (Invitrogen). Cells were maintained in these conditions for seven days, passaging as required. After seven days the cells were spun down, washed with fresh media, and then used for a subsequent round of transduction according to the protocol above with HER2YF virus. […] The cells were maintained in these conditions for seven days, passaging as required. After seven days the cells were spun down, washed with fresh media, and then suspended in media supplemented with 10 ng/mL of NRG. Cells were maintained in these conditions for seven days to select for a NRG dependent population of 2YF/3wt Ba/F3 cells that were then maintained as described above. The same protocol was used for the 2YF-L755S/3wt, 2YF-YVMA/3wt, and 2YF-VC/3wt cell lines using the indicated constructs.
Proliferation Assays. […] The following day media was changed to fresh media that contained either DMSO or the indicated concentration of drug plus NRG (50 ng/mL final concentration) as indicated. […] For all normalized assays, proliferation was normalized to the DMSO control condition. All graphs were plotted in GraphPad Prism 6 and fit with a non-linear regression of the log(inhibitor) vs response with a variable slope where shown. All graphs are averages (+/−standard deviation) of biological triplicates each performed in technical triplicate unless otherwise noted. If only one biological replicate was performed standard deviations were derived from the technical replicates.

[3] = test system: HER2+/2VE Ba/F3 line; assay: Ba/F3 proliferation assay, HER2+/2VE; type: cell-based; conditions: Tables 7 and 8
Description: (§1) Proliferation Assays. For adherent cell lines, cells were plated onto opaque white 96 well plates (Greiner cat #655083) and allowed to adhere overnight. The following day media was changed to fresh media that contained either DMSO or the indicated concentration of drug plus NRG (50 ng/mL final concentration) as indicated. Plates were incubated at 37° C. for 72 h and proliferation was read out using Cell Titer Glo (Promega) according to the manufacturer's protocol. For Ba/F3 cell proliferation, cells, drug dilution, and any necessary growth factors (10 ng/mL IL-3 or 6.25 ng/mL NRG) were combined in a well of a 96 well plate. Plates were incubated at 37° C. for 48 h and proliferation was read out using Cell Titer Glo according to the manufacturer's protocol. For all normalized assays, proliferation was normalized to the DMSO control condition. All graphs were plotted in GraphPad Prism 6 and fit with a non-linear regression of the log(inhibitor) vs response with a variable slope where shown. All graphs are averages (+/−standard deviation) of biological triplicates each performed in technical triplicate unless otherwise noted. If only one biological replicate was performed standard deviations were derived from the technical replicates.

[4] = test system: parental Ba/F3 cells + IL-3; assay: Ba/F3 proliferation assay, Parental + IL-3; type: cell-based; conditions: Tables 7 and 8, read-out: Ba/F3 line IC50, Parental + IL-3
Description: (§2) To validate the screen and test the effectiveness of counter-screening with either the same 2YF/3wt Ba/F3 cell line or the parental Ba/F3's in the presence of IL-3 to remove cytotoxic primary hits, we first tested a panel of kinase inhibitors with established mechanisms of action.
as §1

[5] = biological target: T1, Axl+ Ba/F3 cells (Homo sapiens, UniProt P30530); assay: Ba/F3 proliferation assay, Axl+; type: cell-based; conditions: Tables 7 and 8; read-out: Ba/F3 line IC50, Axl+
T1 sequence (P30530 1-894): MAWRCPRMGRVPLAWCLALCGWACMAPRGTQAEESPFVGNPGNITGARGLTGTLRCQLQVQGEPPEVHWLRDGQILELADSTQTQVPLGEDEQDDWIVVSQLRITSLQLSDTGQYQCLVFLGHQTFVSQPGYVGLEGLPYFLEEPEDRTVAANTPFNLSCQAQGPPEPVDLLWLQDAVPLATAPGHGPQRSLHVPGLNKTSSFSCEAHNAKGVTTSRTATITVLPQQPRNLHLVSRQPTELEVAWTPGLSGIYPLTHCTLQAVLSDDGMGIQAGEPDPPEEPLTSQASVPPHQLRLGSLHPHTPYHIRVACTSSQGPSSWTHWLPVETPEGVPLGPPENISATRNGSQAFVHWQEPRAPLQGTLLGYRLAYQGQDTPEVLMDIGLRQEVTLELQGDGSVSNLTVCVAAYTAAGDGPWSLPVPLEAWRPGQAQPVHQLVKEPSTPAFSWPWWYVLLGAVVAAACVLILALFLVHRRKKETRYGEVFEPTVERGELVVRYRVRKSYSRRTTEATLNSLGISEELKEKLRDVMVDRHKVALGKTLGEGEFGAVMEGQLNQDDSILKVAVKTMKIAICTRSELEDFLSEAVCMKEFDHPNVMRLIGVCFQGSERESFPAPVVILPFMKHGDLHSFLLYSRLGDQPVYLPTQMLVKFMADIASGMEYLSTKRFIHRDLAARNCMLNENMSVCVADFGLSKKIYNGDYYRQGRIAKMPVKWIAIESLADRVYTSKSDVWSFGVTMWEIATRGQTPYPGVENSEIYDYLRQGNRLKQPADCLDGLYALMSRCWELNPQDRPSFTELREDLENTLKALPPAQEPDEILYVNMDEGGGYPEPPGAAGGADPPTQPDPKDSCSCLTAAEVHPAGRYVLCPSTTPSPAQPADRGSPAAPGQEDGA
Description: as §2
For Axl+ cells, the transduced cells were spun down at 500×g for 5 min and resuspended in media supplemented with 10 ng/mL IL-3 and 3 μg/mL puromycin (Invitrogen). Cells were maintained in these conditions for 7 days, passaging as required. After 7 days the cells were spun down, washed with fresh media, and then suspended in IL-3 free media. The cells were maintained in these conditions for 2 weeks to select for an IL-3 independent population of Axl+ driven cells.
as §1

2YF/3wt + NRG Ba/F3 cells (HER2YF/HER3wt), sequence (P04626 whole entry Y1005F/Y1023F/Y1112F/Y1127F/Y1139F/Y1196F/Y1221F/Y1222F/Y1248F): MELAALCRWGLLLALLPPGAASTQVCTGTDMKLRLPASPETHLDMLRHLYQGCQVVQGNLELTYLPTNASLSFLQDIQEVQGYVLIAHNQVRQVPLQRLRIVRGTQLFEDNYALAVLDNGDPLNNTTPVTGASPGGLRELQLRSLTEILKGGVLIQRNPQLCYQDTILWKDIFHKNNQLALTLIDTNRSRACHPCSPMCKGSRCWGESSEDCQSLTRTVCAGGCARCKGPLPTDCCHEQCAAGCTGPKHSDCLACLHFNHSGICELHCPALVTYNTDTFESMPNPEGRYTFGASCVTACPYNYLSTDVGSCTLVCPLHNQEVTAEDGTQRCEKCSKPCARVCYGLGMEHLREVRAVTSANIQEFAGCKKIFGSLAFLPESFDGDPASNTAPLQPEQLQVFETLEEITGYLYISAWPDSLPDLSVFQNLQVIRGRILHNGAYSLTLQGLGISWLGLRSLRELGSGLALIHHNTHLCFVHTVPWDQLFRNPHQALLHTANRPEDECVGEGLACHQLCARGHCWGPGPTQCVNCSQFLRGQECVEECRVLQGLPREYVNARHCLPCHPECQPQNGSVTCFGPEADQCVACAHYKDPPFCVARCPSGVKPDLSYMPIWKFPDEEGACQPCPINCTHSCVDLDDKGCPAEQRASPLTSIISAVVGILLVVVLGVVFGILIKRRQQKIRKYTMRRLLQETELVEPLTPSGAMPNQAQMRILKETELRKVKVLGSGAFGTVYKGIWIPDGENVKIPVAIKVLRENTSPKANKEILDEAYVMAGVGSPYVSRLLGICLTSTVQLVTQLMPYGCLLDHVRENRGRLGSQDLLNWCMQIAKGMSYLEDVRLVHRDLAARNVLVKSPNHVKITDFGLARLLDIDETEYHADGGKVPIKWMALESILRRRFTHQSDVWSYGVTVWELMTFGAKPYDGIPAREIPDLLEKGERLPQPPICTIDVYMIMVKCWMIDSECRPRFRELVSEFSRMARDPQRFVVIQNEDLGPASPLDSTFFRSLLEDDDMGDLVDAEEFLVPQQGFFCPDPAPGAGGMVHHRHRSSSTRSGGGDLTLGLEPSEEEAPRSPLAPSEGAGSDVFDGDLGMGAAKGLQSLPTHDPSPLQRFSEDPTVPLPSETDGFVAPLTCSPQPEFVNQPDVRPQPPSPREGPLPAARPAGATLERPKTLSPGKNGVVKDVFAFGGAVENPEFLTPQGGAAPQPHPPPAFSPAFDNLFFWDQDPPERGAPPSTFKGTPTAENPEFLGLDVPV

Row | WuXi Microsomal stability (Mouse Extraction Ratio) [1] | GI50 [2] [nM] | IC50 ([3]; Mus musculus, BaF3) [nM] | GI50 [5] [nM] | IC50 [3] [nM] | SMILES | IC50 ([4]; Mus musculus, BaF3) [µM] | IC50 [4] [µM]
1 | – | > 10000 | > 10000 | > 10000 | – | c1ccc(-c2cccc(Nc3ncnc4[nH]nc(-c5ccccc5)c34)c2)cc1 [Cmpd 186A] | > 10 | –
2 | – | > 10000 | > 10000 | > 10000 | – | CC(=O)c1cccc(-c2n[nH]c3ncnc(Nc4cccc(-c5ccccc5)c4)c23)c1 [Cmpd 186B] | > 10 | –
3 | – | > 10000 | > 10000 | > 10000 | – | COc1ccccc1Nc1ncnc2[nH]nc(-c3ccccc3)c12 [Cmpd 187A] | > 10 | –
4 | – | > 10000 | > 10000 | > 10000 | – | COc1ccccc1Nc1ncnc2[nH]nc(-c3cccc(C(C)=O)c3)c12 [Cmpd 187B] | > 10 | –
5 | – | > 10000 | > 10000 | > 10000 | – | c1ccc(-c2ccc(Nc3ncnc4[nH]nc(-c5ccccc5)c34)cc2)cc1 [Cmpd 188A] | > 10 | –
6 | – | > 10000 | > 10000 | > 10000 | – | CC(=O)c1cccc(-c2n[nH]c3ncnc(Nc4ccc(-c5ccccc5)cc4)c23)c1 [Cmpd 188B] | > 10 | –
7 | – | 361 | 613 | 362 | – | COc1ccc(-c2ccccc2)cc1Nc1ncnc2[nH]nc(-c3ccccc3F)c12 [Cmpd 189A] | 1.12 | –
8 | – | > 10000 | – | > 10000 | > 10000 | COc1ccc(-c2n[nH]c3ncnc(Nc4cc(-c5ccccc5)ccc4OC)c23)cc1 [Cmpd 189B] | – | > 10
9 | – | 86.8 | 229 | 171 | – | COc1cccc(-c2n[nH]c3ncnc(Nc4cc(-c5ccccc5)ccc4OC)c23)c1 [Cmpd 190A] | 0.45 | –
10 | – | 862 | 1840 | 643 | – | COc1ccc(-c2ccccc2)cc1Nc1ncnc2[nH]nc(-c3ccc4ccccc4c3)c12 [Cmpd 190C] | 1.51 | –
11 | – | > 10000 | > 10000 | > 10000 | – | COc1ccc(C(C)(C)C)cc1Nc1ncnc2[nH]nc(-c3cccc(C(C)=O)c3)c12 [Cmpd 190D] | > 10 | –
12 | – | 150 | 769 | 506 | – | CC(=O)c1cccc(-c2n[nH]c3ncnc(Nc4cc(-c5ccccc5)ccc4O)c23)c1 [Cmpd 191A] | 2.91 | –
13 | – | > 1000 | > 1000 | > 1000 | – | COc1ccc(-c2ccccc2)cc1Nc1ncnc2[nH]nc(-c3cccc4ccccc34)c12 [Cmpd 191B] | > 1 | –
14 | – | 884 | 1110 | 1010 | – | COc1ccc(-c2ccccc2)cc1Nc1ncnc2[nH]nc(-c3ccc(C#N)cc3)c12 [Cmpd 191D] | 1.74 | –
15 | – | > 10000 | > 10000 | > 10000 | – | COc1ccc(-c2ccccc2)cc1Nc1ncnc2[nH]nc(-c3ccc(C(F)(F)F)cc3)c12 [Cmpd 191E] | > 10 | –
16 | – | 376 | 1700 | 2150 | – | COc1ccc(-c2ccccc2)cc1Nc1ncnc2[nH]nc(-c3ccsc3)c12 [Cmpd 191F] | 2.51 | –
17 | – | > 10000 | > 10000 | > 10000 | – | COc1ccc(-c2ccccc2)cc1Nc1ncnc2[nH]nc(-c3ccc(C(C)=O)cc3)c12 [Cmpd 191H] | > 10 | –

The remaining lines, values behind:

Row | SMILES | WuXi Microsomal stability (Mouse Extraction Ratio) [1] | GI50 [2] [nM] | IC50 ([3]; Mus musculus, BaF3) [nM] | GI50 [5] [nM] | IC50 [3] [nM] | IC50 ([4]; Mus musculus, BaF3) [µM] | IC50 [4] [µM]
18 | COc1ccc(-c2ccccc2F)cc1Nc1ncnc2[nH]nc(-c3cc[nH]n3)c12 [8168A] | 0.8 | – | – | – | – | – | –
19 | COc1ccc(-c2ccccc2)cc1Nc1ncnc2[nH]nc(-c3ccc[nH]3)c12 [Cmpd 45C] | – | 952 | > 3330 | > 3330 | – | > 10 | –
20 | COc1ccc(-c2ccccc2)cc1Nc1ncnc2[nH]nc(-c3cccc(C(N)=O)c3)c12 [Cmpd 45D] | – | 270 | 869 | 880 | – | 3.01 | –
21 | COc1ccc(-c2ccccc2)cc1Nc1ncnc2[nH]nc(-c3cn[nH]c3)c12 [Cmpd 45E] | – | 53 | 1350 | > 10000 | – | > 10 | –
22 | CNC(=O)c1cc(-c2n[nH]c3ncnc(Nc4cc(-c5ccccc5)ccc4OC)c23)cs1 [Cmpd 45F] | – | 739 | 1020 | 535 | – | > 10 | –
23 | COc1ccc(-c2ccco2)cc1Nc1ncnc2[nH]nc(-c3cn[nH]c3)c12 [Cmpd 53B] | – | 13.9 | 83.5 | > 10000 | – | > 10 | –
24 | COc1ccc(-c2ccoc2)cc1Nc1ncnc2[nH]nc(-c3ccco3)c12 [Cmpd 57A] | – | 21 | 460 | > 10000 | – | > 10 | –
25 | COc1ccc(-c2ccoc2)cc1Nc1ncnc2[nH]nc(-c3cn[nH]c3)c12 [Cmpd 57B] | – | 12.6 | 82.9 | > 10000 | – | > 10 | –
26 | COc1ccc(-c2ccccc2)cc1Nc1ncnc2[nH]nc(-c3ccccc3)c12 [Cmpd 184] | – | 386 | 1290 | 527 | – | 9.95 | –
27 | COc1ccc(-c2ccccc2)cc1Nc1ncnc2[nH]nc(-c3cccc(C(C)=O)c3)c12 [compound 185, 1-(3-(4-((4-methoxy-[1,1′-biphenyl]-3-yl)amino)-1H-pyrazolo[3,4-d]pyrimidin-3-yl)phenyl)ethanone] | – | 148 | 243 | 257 | – | 1.49 | –
28 | COc1cc(C)c(-c2ccccc2)cc1Nc1ncnc2[nH]nc(-c3cc[nH]n3)c12 [compound 8134] | 0.7 | – | – | – | – | – | –
